In series [1] the test system is Trifoliumre pensL. As to the kind of experiment: Post-emergence herbicidal activity test (stem and leaf spray, pot culture). It is filed as in vivo. The following applies: 3 weeks after spraying. Put shortly: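 Pot-grown weeds in loam (pH 7), greenhouse at 20–30 °C, sprayed once post-emergence at the 2–3-leaf stage. Compound in acetone with Tween 80 plus methyl oleate oil (1.5 L/ha), applied at 10, 5 and 2.5 g/mu by spray tower. Effect scored 3 weeks after spraying, averaged over three repeats.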

Series [2] relates to Echinochloa crusgalli. Described as above. In kind it is in vivo. As to conditions: 3 weeks after spraying. In short, it runs like this:
(§1)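 Seeds soaked 6 h at 25 °C, germinated at 28 °C, sown in loam pots and thinned to 10 plants/pot. At 2–3 leaves, plants received a single spray-tower application of 10, 5 or 2.5 g/mu. Fresh-weight control was graded 0–5 after 3 weeks.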

Series [3] deals with Amaranthus retroflexus. Described as above. It is filed as in vivo. The following applies: 3 weeks after spraying. In short, it runs like this: as §1
The subject of series [4] is Portulaca oleracea. Described as above. It is filed as in vivo. The following applies: 3 weeks after spraying. In short, it runs like this: as §1
Series [5] relates to Abutilon theophrasti. The series is described as above. It is filed as in vivo. The following applies: 3 weeks after spraying. Put shortly: as §1
In series [6] the test system is Setaria viridis. The description is as above. It is filed as in vivo. As to conditions: 3 weeks after spraying. Put shortly:
as §1

A word on the melting point: it is the temperature, or range, at which the solid turns liquid. Compound `O=C(COc1cc(N2C(=O)C3=C(CCCC3)C2=O)c(F)cc1Cl)c1ccc([N+](=O)[O-])cc1` [Compound C9, 2-(4-chloro-2-fluoro-5-(2-oxo-2-(4-nitrophenyl)ethoxy)phenyl)-4,5,6,7-tetrahydro-1H-isoindole-1,3(2H)-dione] returned a melting point of 148 to 150 °C. Besides, the “Post-emergence herbicidal activity, Trifoliumre pensL. (grade)” value in series [1] (dosage 2.5 g/mu) is recorded as 5 (Grade 5: the growth control rate is greater than or equal to 85%). Besides, the “Post-emergence herbicidal activity, Trifoliumre pensL. (grade)” value in series [1] (dosage 5 g/mu) is 5 (Grade 5: the growth control rate is greater than or equal to 85%). Further, the “Post-emergence herbicidal activity, Trifoliumre pensL. (grade)” value in series [1] (dosage 10 g/mu) was 5 (Grade 5: the growth control rate is greater than or equal to 85%). The “Post-emergence herbicidal activity, E. crusgalli (grade)” value in series [2] (dosage 2.5 g/mu) is 1 (Grade 1: the growth control rate is greater than or equal to 5% and less than 20%). The “Post-emergence herbicidal activity, E. crusgalli (grade)” value in series [2] (dosage 5 g/mu) was 2 (Grade 2: the growth control rate is greater than or equal to 20% and less than 40%). In addition, in series [2] (dosage 10 g/mu), the “Post-emergence herbicidal activity, E. crusgalli (grade)” value was 3 (Grade 3: the growth control rate is greater than or equal to 40% and less than 60%). Moreover, the “Post-emergence herbicidal activity, A. retroflexus (grade)” value in series [3] (dosage 2.5 g/mu) is listed as 5 (Grade 5: the growth control rate is greater than or equal to 85%). In addition, the “Post-emergence herbicidal activity, A. retroflexus (grade)” value in series [3] (dosage 5 g/mu) is reported as 5 (Grade 5: the growth control rate is greater than or equal to 85%). The “Post-emergence herbicidal activity, A. retroflexus (grade)” value in series [3] (dosage 10 g/mu) is listed as 5 (Grade 5: the growth control rate is greater than or equal to 85%). In addition, the “Post-emergence herbicidal activity, P. oleracea (grade)” value in series [4] (dosage 2.5 g/mu) is recorded as 5 (Grade 5: the growth control rate is greater than or equal to 85%). Besides, the “Post-emergence herbicidal activity, P. oleracea (grade)” value in series [4] (dosage 5 g/mu) is recorded as 5 (Grade 5: the growth control rate is greater than or equal to 85%). The “Post-emergence herbicidal activity, P. oleracea (grade)” value in series [4] (dosage 10 g/mu) was 5 (Grade 5: the growth control rate is greater than or equal to 85%). The “Post-emergence herbicidal activity, A. theophrasti (grade)” value in series [5] (dosage 2.5 g/mu) was 5 (Grade 5: the growth control rate is greater than or equal to 85%). The “Post-emergence herbicidal activity, A. theophrasti (grade)” value in series [5] (dosage 5 g/mu) is 5 (Grade 5: the growth control rate is greater than or equal to 85%). Besides, the “Post-emergence herbicidal activity, A. theophrasti (grade)” value in series [5] (dosage 10 g/mu) is given as 5 (Grade 5: the growth control rate is greater than or equal to 85%). Further, the “Post-emergence herbicidal activity, S. viridis (grade)” value in series [6] (dosage 2.5 g/mu) was 2 (Grade 2: the growth control rate is greater than or equal to 20% and less than 40%). Moreover, in series [6] (dosage 5 g/mu), the “Post-emergence herbicidal activity, S. viridis (grade)” value was 3 (Grade 3: the growth control rate is greater than or equal to 40% and less than 60%). In addition, the “Post-emergence herbicidal activity, S. viridis (grade)” value in series [6] (dosage 10 g/mu) was 4 (Grade 4: the growth control rate is greater than or equal to 60% and less than 85%).
In turn, `O=C1C2=C(CCCC2)C(=O)N1c1cc(OCc2ccc(F)cc2)c(Cl)cc1F` [Compound C10, 2-(4-chloro-2-fluoro-5-((4-fluorobenzyl)oxy)phenyl)-4,5,6,7-tetrahydro-1H-isoindole-1,3(2H)-dione] gave a melting point of 119 to 121 °C. For the same compound, the “Post-emergence herbicidal activity, Trifoliumre pensL. (grade)” value in series [1] (dosage 2.5 g/mu) is 5 (Grade 5: the growth control rate is greater than or equal to 85%). The “Post-emergence herbicidal activity, Trifoliumre pensL. (grade)” value in series [1] (dosage 5 g/mu) is 5 (Grade 5: the growth control rate is greater than or equal to 85%). In addition, the “Post-emergence herbicidal activity, Trifoliumre pensL. (grade)” value in series [1] (dosage 10 g/mu) is 5 (Grade 5: the growth control rate is greater than or equal to 85%). In series [2] (dosage 2.5 g/mu), the “Post-emergence herbicidal activity, E. crusgalli (grade)” value was 1 (Grade 1: the growth control rate is greater than or equal to 5% and less than 20%). Besides, the “Post-emergence herbicidal activity, E. crusgalli (grade)” value in series [2] (dosage 5 g/mu) was 2 (Grade 2: the growth control rate is greater than or equal to 20% and less than 40%). In addition, in series [2] (dosage 10 g/mu), the “Post-emergence herbicidal activity, E. crusgalli (grade)” value was 3 (Grade 3: the growth control rate is greater than or equal to 40% and less than 60%). Also, the “Post-emergence herbicidal activity, A. retroflexus (grade)” value in series [3] (dosage 2.5 g/mu) is 5 (Grade 5: the growth control rate is greater than or equal to 85%). Besides, in series [3] (dosage 5 g/mu), the “Post-emergence herbicidal activity, A. retroflexus (grade)” value was 5 (Grade 5: the growth control rate is greater than or equal to 85%). In addition, the “Post-emergence herbicidal activity, A. retroflexus (grade)” value in series [3] (dosage 10 g/mu) was 5 (Grade 5: the growth control rate is greater than or equal to 85%). For the same compound, the “Post-emergence herbicidal activity, P. oleracea (grade)” value in series [4] (dosage 2.5 g/mu) is given as 5 (Grade 5: the growth control rate is greater than or equal to 85%). Further, the “Post-emergence herbicidal activity, P. oleracea (grade)” value in series [4] (dosage 5 g/mu) is reported as 5 (Grade 5: the growth control rate is greater than or equal to 85%). For the same compound, the “Post-emergence herbicidal activity, P. oleracea (grade)” value in series [4] (dosage 10 g/mu) is reported as 5 (Grade 5: the growth control rate is greater than or equal to 85%). The “Post-emergence herbicidal activity, A. theophrasti (grade)” value in series [5] (dosage 2.5 g/mu) is 5 (Grade 5: the growth control rate is greater than or equal to 85%). For the same compound, in series [5] (dosage 5 g/mu), the “Post-emergence herbicidal activity, A. theophrasti (grade)” value is 5 (Grade 5: the growth control rate is greater than or equal to 85%). For the same compound, in series [5] (dosage 10 g/mu), the “Post-emergence herbicidal activity, A. theophrasti (grade)” value was 5 (Grade 5: the growth control rate is greater than or equal to 85%). In addition, the “Post-emergence herbicidal activity, S. viridis (grade)” value in series [6] (dosage 2.5 g/mu) was 2 (Grade 2: the growth control rate is greater than or equal to 20% and less than 40%). Also, the “Post-emergence herbicidal activity, S. viridis (grade)” value in series [6] (dosage 5 g/mu) was 3 (Grade 3: the growth control rate is greater than or equal to 40% and less than 60%). The “Post-emergence herbicidal activity, S. viridis (grade)” value in series [6] (dosage 10 g/mu) was 4 (Grade 4: the growth control rate is greater than or equal to 60% and less than 85%).
For the compound `O=C(COc1cc(N2C(=O)C3=C(CCCC3)C2=O)c(F)cc1Cl)c1ccc(Cl)cc1` [Compound C11, 2-(4-chloro-2-fluoro-5-(2-oxo-2-(4-chlorophenyl)ethoxy)phenyl)-4,5,6,7-tetrahydro-1H-isoindole-1,3(2H)-dione], the melting point is 148 to 150 °C. For the same compound, in series [1] (dosage 2.5 g/mu), the “Post-emergence herbicidal activity, Trifoliumre pensL. (grade)” value is listed as 5 (Grade 5: the growth control rate is greater than or equal to 85%). Moreover, the “Post-emergence herbicidal activity, Trifoliumre pensL. (grade)” value in series [1] (dosage 5 g/mu) is 5 (Grade 5: the growth control rate is greater than or equal to 85%). Besides, in series [1] (dosage 10 g/mu), the “Post-emergence herbicidal activity, Trifoliumre pensL. (grade)” value is reported as 5 (Grade 5: the growth control rate is greater than or equal to 85%). Besides, the “Post-emergence herbicidal activity, E. crusgalli (grade)” value in series [2] (dosage 2.5 g/mu) was 1 (Grade 1: the growth control rate is greater than or equal to 5% and less than 20%). Besides, the “Post-emergence herbicidal activity, E. crusgalli (grade)” value in series [2] (dosage 5 g/mu) was 2 (Grade 2: the growth control rate is greater than or equal to 20% and less than 40%). Moreover, the “Post-emergence herbicidal activity, E. crusgalli (grade)” value in series [2] (dosage 10 g/mu) is 3 (Grade 3: the growth control rate is greater than or equal to 40% and less than 60%). Moreover, the “Post-emergence herbicidal activity, A. retroflexus (grade)” value in series [3] (dosage 2.5 g/mu) is 5 (Grade 5: the growth control rate is greater than or equal to 85%). In series [3] (dosage 5 g/mu), the “Post-emergence herbicidal activity, A. retroflexus (grade)” value is on record as 5 (Grade 5: the growth control rate is greater than or equal to 85%). The “Post-emergence herbicidal activity, A. retroflexus (grade)” value in series [3] (dosage 10 g/mu) was 5 (Grade 5: the growth control rate is greater than or equal to 85%). In addition, the “Post-emergence herbicidal activity, P. oleracea (grade)” value in series [4] (dosage 2.5 g/mu) is given as 5 (Grade 5: the growth control rate is greater than or equal to 85%). The “Post-emergence herbicidal activity, P. oleracea (grade)” value in series [4] (dosage 5 g/mu) was 5 (Grade 5: the growth control rate is greater than or equal to 85%). Further, the “Post-emergence herbicidal activity, P. oleracea (grade)” value in series [4] (dosage 10 g/mu) was 5 (Grade 5: the growth control rate is greater than or equal to 85%). For the same compound, the “Post-emergence herbicidal activity, A. theophrasti (grade)” value in series [5] (dosage 2.5 g/mu) is reported as 5 (Grade 5: the growth control rate is greater than or equal to 85%). Further, the “Post-emergence herbicidal activity, A. theophrasti (grade)” value in series [5] (dosage 5 g/mu) is recorded as 5 (Grade 5: the growth control rate is greater than or equal to 85%). In addition, the “Post-emergence herbicidal activity, A. theophrasti (grade)” value in series [5] (dosage 10 g/mu) was 5 (Grade 5: the growth control rate is greater than or equal to 85%). Also, in series [6] (dosage 2.5 g/mu), the “Post-emergence herbicidal activity, S. viridis (grade)” value was 2 (Grade 2: the growth control rate is greater than or equal to 20% and less than 40%). Moreover, the “Post-emergence herbicidal activity, S. viridis (grade)” value in series [6] (dosage 5 g/mu) is 3 (Grade 3: the growth control rate is greater than or equal to 40% and less than 60%). Besides, in series [6] (dosage 10 g/mu), the “Post-emergence herbicidal activity, S. viridis (grade)” value was 4 (Grade 4: the growth control rate is greater than or equal to 60% and less than 85%).

Source of the values: patent publication US20240300932A1, “N-PHENYLIMINE DERIVATIVE AND PREPARATION METHOD AND USE THEREOF” (Guizhou University, priority 2023, published 2024).
